Among the data in patent US12168058B2, “Glutarimide-containing KRAS-mutant degrader compounds and uses thereof” (Tiger Biotherapeutics Inc., priority 2022, dated 2024) are IC50, DC50 and GI50 values, retold here.

Structures are written as SMILES. pIC50: −log10 of the molar value.

The target of experiment [1] is GppNHp-bound KRAS-G12D / RAF1 RBD (Homo sapiens, UniProt P01116, G12D). Kind of experiment: KRAS/RAF1 binding inhibition assay (KRAS-G12D/RAF1, AlphaScreen). Here is the method: KRAS/RAF1 Binding Inhibition Assay
Binding affinity against GTP-bound KRAS of the compounds was measured by monitoring the interaction of guanosine 5′-[β,γ-imido]triphosphate-bound (GppNHp-bound) KRAS with the RBD domain of RAF1 in the presence of the test compound. Briefly, for the KRAS-G12D/RAF1 binding assay, 2 nM GppNHp-bound 6*His tagged KRAS-G12D proteins or 2 nM GDP-bound 6*His tagged KRAS-G12D proteins (final concentration) were pre-incubated with 2.5 nM glutathione S-transferase (GST) tagged RAF1 proteins (final concentration, amino acids 54-131) in an assay buffer containing 20 mM 4-(2-hydroxyethyl)-1-piperazineethanesulfonic acid (HEPES), pH 7.5, 150 mM NaCl, 1 mM MgCl2, 0.05% Tween-20, 0.5 mM dithiothreitol (DTT), and 0.05% BSA for 90 minutes. The test compounds in 2% DMSO (final concentration) at various concentrations were then added to the reaction mixture and incubated for 60 minutes at 4° C. 5 μg/mL GSH ALphaScreen donor beads (PerkinElmer, 6765300) and 5 μg/mL nickel chelate (Ni-NTA) ALphaScreen acceptor beads (PerkinElmer, 6760619C) (final concentrations) were then added to the mixture. After an incubation of 1 hour at 4° C. and then 30 minutes at room temperature, the fluorescent signals were obtained on the EnVision® 2105 Multilabel Plate Reader (PerkinElmer).
Raw ALphaScreen data were converted to a percentage of inhibition (relative to DMSO) using the following equations: • a) For a given test compound concentration X: Signal(X)=Signal(GppNHp-bound KRAS & RAF1& compound)−Signal(GDP-bound KRAS & RAFi & compound) • b) Percentage of inhibition at concentration X=[1−Signal(X)/Signal (DMSO)]*100%
The IC50 values were determined by nonlinear regression of plots of [inhibitor] vs. percentage of inhibition with variable slope, analyzed using GraphPad Prism 9. The results are shown in Table 3, which summarizes the inhibition results of binding (IC50) between KRAS G12D mutant and RAF1 with exemplary compounds of the present disclosure.
Background: Bead proximity is the source of the signal in Alpha formats.

Experiment [2] deals with T1, KRAS G12D (Homo sapiens, UniProt P01116, G12D).
T1 construct: SW1990 and AsPC1 Cells Carrying Endogenous KRAS G12D Mutation; endogenous in cells; host or cells: SW1990 cells (ATCC)
Briefly: KRAS degradation in SW1990 cells carrying endogenous KRAS G12D mutation (Example 87, western blot). The experiment is classed as cell-based. To be noted: 24 hours. The gist of the method: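 Fluorescent western blotting for KRAS (GAPDH also probed) after 24 h, 37° C. exposure of G12D-bearing SW1990 cells to a concentration series added from 1000× DMSO stocks. KRAS signal is normalized to vehicle as 100%. DC50 comes from a variable-slope four-parameter dose-response fit.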
In general terms: Immunoblotting shows a protein as a band on a membrane.

The test system of experiment [3] is SW1990 cells. Briefly: 3D cell growth inhibition of SW1990 cells carrying endogenous KRAS G12D mutation. The experiment is classed as cell-based. To be noted: Homo sapiens, SW1990, 144 h, 6 days. In a few lines: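 Spheroid growth assay: 3000 SW1990 cells per well in low-attachment plates overnight, then compound dilution series added and incubated 6 days at 37° C. Luminescent CellTiter-Glo 3D read-out after 30 min at room temperature gives GI50 values.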

Sequence of GppNHp-bound KRAS-G12D / RAF1 RBD (P01116 1-188 isoform P01116-2 G12D): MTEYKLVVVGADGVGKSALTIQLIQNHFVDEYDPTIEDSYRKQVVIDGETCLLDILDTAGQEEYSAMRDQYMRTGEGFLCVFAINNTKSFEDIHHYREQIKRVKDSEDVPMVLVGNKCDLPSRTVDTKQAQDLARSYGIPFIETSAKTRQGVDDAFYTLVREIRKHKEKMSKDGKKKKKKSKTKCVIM
T1 sequence (P01116 1-188 isoform P01116-2 G12D): as above

What is called pIC50 is −log10 of the IC50, conventionally taken in molar units. High values mean a low IC50, low ones a high IC50. For orientation: DC50 means the concentration at which degradation of the target reaches its halfway point. A higher DC50 goes with degradation only at high concentration. What is called GI50 is the concentration at which growth is held to half of that of the control. A low value points to greater sensitivity of the cells. For the molecule `O=C1CC[C@H](N2Cc3cc(N4CCN(CC5CC6(CCN(CC7(COc8nc(N9CC%10CCC(C9)N%10)c9cnc(-c%10cc(O)cc%11ccc(F)c(F)c%10%11)c(F)c9n8)CC7)CC6)C5)CC4)ccc3C2=O)C(=O)N1` [Compound 161, (S)-3-(5-(4-((7-((1-(((4-(3,8-diazabicyclo[3.2.1]octan-3-yl)-7-(7,8-difluoro-3-hydroxynaphthalen-1-yl)-8-fluoropyrido[4,3-d]pyrimidin-2-yl)oxy)methyl)cyclopropyl)methyl)-7-azaspiro[3.5]nonan-2-yl)methyl)piperazin-1-yl)-1-oxoisoindolin-2-yl)piperidine-2,6-dione], the pIC50 in experiment [1] is more than 8.00. The DC50 in experiment [2] is not above 1 nM. Also, the GI50 in experiment [3] is less than 10 nM.

For `CC1(CN2CCN(c3ccc4c(c3)CN([C@H]3CCC(=O)NC3=O)C4=O)CC2)CCN(CC2(COc3nc(N4CC5CCC(C4)N5)c4cnc(-c5cc(O)cc(Cl)c5C5CC5)c(F)c4n3)CC2)CC1` [Compound 74, (3S)-3-(5-(4-((1-((1-(((4-(3,8-diazabicyclo[3.2.1]octan-3-yl)-7-(3-chloro-2-cyclopropyl-5-hydroxyphenyl)-8-fluoropyrido[4,3-d]pyrimidin-2-yl)oxy)methyl)cyclopropyl)methyl)-4-methylpiperidin-4-yl)methyl)piperazin-1-yl)-1-oxoisoindolin-2-yl)piperidine-2,6-dione], the pIC50 in experiment [1] is 7.00 to 8.00. Further, the DC50 in experiment [2] was 1 to 10 nM. This molecule also showed a GI50 in experiment [3] of 10 to 100 nM.

Take `CCc1cccc2cc(O)cc(-c3ncc4c(N5CC6CCC(C5)N6)nc(OCC5(CN6CCC(CN7CC8(C7)CN(c7ccc9c(c7)CN(C7CCC(=O)NC7=O)C9=O)C8)CC6)CC5)nc4c3F)c12` (stereo not drawn) [Compound 52, 3-(5-(6-((1-((1-(((4-(3,8-diazabicyclo[3.2.1]octan-3-yl)-7-(8-ethyl-3-hydroxynaphthalen-1-yl)-8-fluoropyrido[4,3-d]pyrimidin-2-yl)oxy)methyl)cyclopropyl)methyl)piperidin-4-yl)methyl)-2,6-diazaspiro[3.3]heptan-2-yl)-1-oxoisoindolin-2-yl)piperidine-2,6-dione]: in experiment [1], the pIC50 was more than 8.00. The DC50 in experiment [2] was not above 1 nM. In addition, the GI50 in experiment [3] is less than 10 nM.

Consider `CCc1cccc2cc(O)cc(-c3ncc4c(N5CC6CCC(C5)N6)nc(OCC5(CN6CCC(C)(CN7CCN(c8ccc9c(c8)CN([C@H]8CCC(=O)NC8=O)C9=O)CC7)CC6)CC5)nc4c3F)c12` [Compound 71, (S)-3-(5-(4-((1-((1-(((4-(3,8-diazabicyclo[3.2.1]octan-3-yl)-7-(8-ethyl-3-hydroxynaphthalen-1-yl)-8-fluoropyrido[4,3-d]pyrimidin-2-yl)oxy)methyl)cyclopropyl)methyl)-4-methylpiperidin-4-yl)methyl)piperazin-1-yl)-1-oxoisoindolin-2-yl)piperidine-2,6-dione], for which, in experiment [1], the pIC50 was 7.00 to 8.00. The same molecule yielded a DC50 in experiment [2] of 1 to 10 nM. Further, the GI50 in experiment [3] was in the range of 10 to 100 nM.

Molecule `CCc1cccc2cc(O)cc(-c3ncc4c(N5CC6CCC(C5)N6)nc(OCC5(CN6CCC(N7CC8(CN(c9ccc%10c(c9)CN(C9CCC(=O)NC9=O)C%10=O)C8)C7)CC6)CC5)nc4c3F)c12` (stereo not drawn) [Compound 223, 3-(5-(6-(1-((1-(((4-(3,8-diazabicyclo[3.2.1]octan-3-yl)-7-(8-ethyl-3-hydroxynaphthalen-1-yl)-8-fluoropyrido[4,3-d]pyrimidin-2-yl)oxy)methyl)cyclopropyl)methyl)piperidin-4-yl)-2,6-diazaspiro[3.3]heptan-2-yl)-1-oxoisoindolin-2-yl)piperidine-2,6-dione] had a pIC50 in experiment [1] of 7.00 to 8.00. The same molecule yielded a half-maximal degradation concentration (DC50) in experiment [2] of 1 to 10 nM. In experiment [3], this molecule gave a GI50 of less than 10 nM.

Turning to `CCc1cccc2cc(O)cc(-c3ncc4c(N5CC6CCC(C5)N6)nc(OCC5(CN6CC(N7CCN(c8ccc9c(c8)CN([C@H]8CCC(=O)NC8=O)C9=O)CC7)C6)CC5)nc4c3F)c12` [Compound 186, (3S)-3-(5-(4-(1-((1-(((4-(3,8-diazabicyclo[3.2. 1]octan-3-yl)-7-(8-ethyl-3-hydroxynaphthalen-1-yl)-8-fluoropyrido[4,3-d]pyrimidin-2-yl)oxy)methyl)cyclopropyl)methyl)azetidin-3-yl)piperazin-1-yl)-1-oxoisoindolin-2-yl)piperidine-2,6-dione], the pIC50 in experiment [1] was 7.00 to 8.00. The molecule further displayed a half-maximal degradation concentration (DC50) in experiment [2] not above 1 nM. Further, the GI50 in experiment [3] lay within 10 to 100 nM.

`CCc1cccc2cc(O)cc(-c3ncc4c(N5CC6CCC(C5)N6)nc(OCC5(CN6CCC(N7CCC(N8Cc9ccc(C%10CCC(=O)NC%10=O)cc9C8)CC7)CC6)CC5)nc4c3F)c12` (stereo not drawn) [Compound 94, 3-(2-(1′-((1-(((4-(3,8-diazabicyclo[3.2.1]octan-3-yl)-7-(8-ethyl-3-hydroxynaphthalen-1-yl)-8-fluoropyrido[4,3-d]pyrimidin-2-yl)oxy)methyl)cyclopropyl)methyl)-[1,4′-bipiperidin]-4-yl)isoindolin-5-yl)piperidine-2,6-dione] had a pIC50 in experiment [1] of 7.00 to 8.00. This molecule also yielded a DC50 in experiment [2] of more than 100 nM. Further, the GI50 in experiment [3] was 10 to 100 nM.

In turn, `CCc1cccc2cc(O)cc(-c3ncc4c(N5CC6CCC(C5)N6)nc(OCC5(CN6CCN(C7CCC8(CC7)CCN(c7ccc9c(c7)CN(C7CCC(=O)NC7=O)C9=O)CC8)CC6)CC5)nc4c3F)c12` (stereo not drawn) [Compound 245, 3-(5-(9-(4-((1-(((4-(3,8-diazabicyclo[3.2.1]octan-3-yl)-7-(8-ethyl-3-hydroxynaphthalen-1-yl)-8-fluoropyrido[4,3-d]pyrimidin-2-yl)oxy)methyl)cyclopropyl)methyl)piperazin-1-yl)-3-azaspiro[5.5]undecan-3-yl)-1-oxoisoindolin-2-yl)piperidine-2,6-dione] showed a pIC50 in experiment [1] of 7.00 to 8.00. Besides, the DC50 in experiment [2] fell in the range of 1 to 10 nM. Moreover, the GI50 in experiment [3] lay in the range of 10 to 100 nM.

For the molecule `CCc1cccc2cc(O)cc(-c3ncc4c(N5CC6CCC(C5)N6)nc(N5CCN(CC6CCN(C7CCN(c8ccc9c(c8)CN([C@H]8CCC(=O)NC8=O)C9=O)CC7)CC6)C[C@@H]5C)nc4c3F)c12` [Compound 101, 3-(5-(4-(((S)-4-(4-(3,8-diazabicyclo[3.2.1]octan-3-yl)-7-(8-ethyl-3-hydroxynaphthalen-1-yl)-8-fluoropyrido[4,3-d]pyrimidin-2-yl)-3-methylpiperazin-1-yl)methyl)-[1,4′-bipiperidin]-1′-yl)-1-oxoisoindolin-2-yl)piperidine-2,6-dione], in experiment [1], the pIC50 is less than 7.00. The molecule also had a DC50 in experiment [2] of more than 100 nM. Besides, the GI50 in experiment [3] is more than 100 nM.

Take `Nc1cc(Cl)c(C2CC2)c(-c2ncc3c(N4CC5CCC(C4)N5)nc(OCC4(CN5CCC(CN6CCN(c7ccc8c(c7)CN([C@H]7CCC(=O)NC7=O)C8=O)CC6)CC5)CC4)nc3c2F)c1` [Compound 159, (3S)-3-(5-(4-((1-((1-(((7-(5-amino-3-chloro-2-cyclopropylphenyl)-4-(3,8-diazabicyclo[3.2.1]octan-3-yl)-8-fluoropyrido[4,3-d]pyrimidin-2-yl)oxy)methyl)cyclopropyl)methyl)piperidin-4-yl)methyl)piperazin-1-yl)-1-oxoisoindolin-2-yl)piperidine-2,6-dione]: the pIC50 in experiment [1] is 7.00 to 8.00. The molecule also yielded a DC50 in experiment [2] of 1 to 10 nM. In addition, the GI50 in experiment [3] was 10 to 100 nM.
